Data from patent publication US20250304700A1, “ANTI-BLOOD DENDRITIC CELL ANTIGEN 2 ANTIBODIES AND USES THEREOF” (Biogen MA Inc., priority 2012, published 2025).

Tests used:
human BDCA2 ectodomain = biological target: T1, human BDCA2 ectodomain (Homo sapiens, UniProt Q8WTT0); test: Octet binding of mAbs on anti-human Fc tips to monomeric huBDCA2
T1 construct: huBDCA2 ectodomain: residues 257-425 above (underlined); murine IgG2a Fc (with G4S linker) (N, cleaved yes); made in house
T1 sequence (Q8WTT0 45-213): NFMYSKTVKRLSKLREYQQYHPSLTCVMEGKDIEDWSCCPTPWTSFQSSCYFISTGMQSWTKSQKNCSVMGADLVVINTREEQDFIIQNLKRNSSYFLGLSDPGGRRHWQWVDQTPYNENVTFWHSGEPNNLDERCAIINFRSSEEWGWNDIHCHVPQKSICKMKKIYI
Method: Site-directed mutagenesis was performed using Agilent's QuikChange II mutagenesis kit following the manufacturer's recommended protocol. The C95S variant was constructed using the mutagenic primer 5′ GCAACCTATTACTGTCAACAAAGTAATGAGGATCCTCGGAC 3′ (SEQ ID NO: 38) and its reverse complement, which introduced a new HincII site, producing plasmid pEAG2678. The C95T variant was constructed using the mutagenic primer 5′ CAACCTATTACTGTCAGCAAACTAATGAAGATCCTCGGACGTTCG 3′ (SEQ ID NO: 39) and its reverse complement, which removed a BamHI site, producing plasmid pEAG2679. Mutated plasmids were identified by screening for the introduced restriction site changes. The full-length light chain cDNA sequences in the resultant plasmids were confirmed by DNA sequencing. Wildtype ch24F4 and the C95S and C95T variant mAbs were expressed transiently in 293E cells by co-transfection of pYL672 and pYL671, pEAG2678 or pEAG2679. Conditioned medium was harvested at 2 days post-transfection. Titers (assayed by Octet on anti-human Fc tips) of both variants were similar to that of wildtype ch24F4, and Western blots of nonreducing SDS-PAGE indicated no gross aggregation or obvious clipping relative to wildtype ch24F4 mAb. […] Conditioned medium containing ch24F4 and the C95 variant mAbs was assayed by Octet for binding to human BDCA2 ectodomain. Antibodies from conditioned medium from transiently transfected cells were bound to anti-human Fc tips, then monomeric huBDCA2 was flowed over the Octet tips, to examine binding and dissociation.
Conditioned medium containing ch24F4 and all hu24F4 variant mAbs was assayed by Octet for binding to human BDCA2 ectodomain. The monomeric huBDCA2 ectodomain was prepared by proteolytic cleavage from the purified muIgG2a Fc-huBDCA2 fusion protein (relevant plasmid: pEAG2423). Antibodies from conditioned medium from transiently transfected cells were bound to anti-human Fc tips, and then monomeric huBDCA2 was flowed over the Octet tips, to examine binding and dissociation.
To explore the possibility of enhancing hu24F4 affinity by substitution at the position of the 24F4 version L1 CDR L3 unpaired cysteine (C95S in hu24F4 light chain expression vector pYL740), a number of version L1 variants were constructed by site-directed mutagenesis. Backmutation to the unpaired cysteine, i.e., S95C, was constructed by site-directed mutagenesis producing plasmid pYL749. Variants S95T, S95A, and S95V were constructed by site-directed mutagenesis producing plasmids pYL750, pYL751, and pYL752, respectively. The full-length light chain cDNA sequences in the resultant plasmids were confirmed by DNA sequencing. C95 variant hu24F4 mAbs were expressed transiently in 293E cells by co-transfection of hu24F4 H4 heavy chain pYL746 or hu24F4 H5 heavy chain pYL747 with hu24F4 L1 variant light chains C95S pYL740, S95C pYL749, S95T pYL750, S95A pYL751 or S95V pYL752 plasmids. Conditioned medium was harvested at 2 days post-transfection. Titers (assayed by Octet on anti-human Fc tips) of all variants were similar, and Western blots of nonreducing SDS-PAGE indicated no gross aggregation or obvious clipping. Conditioned medium containing the C95 variant mAbs was assayed by Octet for binding to human BDCA2 ectodomain. Antibodies from conditioned medium from transiently transfected cells were bound to anti-human Fc tips, then monomeric huBDCA2 was flowed over the Octet tips, to examine binding and dissociation. C95A variants had the slowest off-rates.

[1] = test system: human and cynomolgus BDCA2 ECD; test: Octet binding of BIIB059 to BDCA2 ECD; design: species or system cynomolgus monkey; conditions: BIIB059 on anti-human Fc tips, ECD 2 μg/mL, 5 mM CaCl2
Method: For the association step, human and cynomolgus BDCA2 ECD was added at a concentration of 2 μg/mL. The buffer for this experiment was 50 mM HEPES, pH 7, 100 mM NaCl, 5 mM CaCl2, 1 mg/mL BSA, 0.02% Tween 20 and 0.001% azide.

[2] = test system: cell surface BDCA2 on pDCs; test: BIIB059 titration in cynomolgus whole blood, anti-human IgG PE detection; format: binding, cynomolgus monkey; conditions: all cynomolgus monkeys
Method: The maximal values were taken from the values at the plateau in each assay (FIGS. 24 and 25).
Whole blood was drawn from twelve cynomolgus monkeys, once a week for three weeks total. […] MFI of PE was calculated with FlowJo software, and EC50 curves were generated in GraphPad Prism software.

circulating pDCs = test: Circulating pDC frequency after dosing cynomolgus monkeys; format: in vivo, cynomolgus monkey
Description: Nine of these twelve cynomolgus monkeys were divided into 3 groups (3/group), and randomized to include equal representation of BDCA2 density and percent pDC in each group. […] Flow cytometry was used to identify circulating pDCs in the whole blood as CD20-CD14-CD123+HLA-DR+, and the pDC frequency (on log-scale) at each time point was graphed in R software (FIG. 54). A linear mixed effects model was fitted to log (pDC) frequencies using random intercepts for cynomolgus monkeys and fixed effects for dose group and time period: 1 hour, 6 hours, 1-27 days, and greater than 28 days. To assess whether pDC changed among different dose groups at different time periods, a preliminary model also included the interaction terms for dose group and different time periods.
The pDC frequency (on log-scale) at each time point was graphed in R software (FIG. 56). A linear mixed effects model was fitted, using continuous time and time at 1 hour as fixed factors, and cynomolgus monkeys as random intercepts.

[3] = Example 5, conditioned medium, hu24F4 variants
[4] = Example 6, conditioned medium, L1 position 95 variants

cell surface BDCA2 on pDCs, sequence (as listed by the source): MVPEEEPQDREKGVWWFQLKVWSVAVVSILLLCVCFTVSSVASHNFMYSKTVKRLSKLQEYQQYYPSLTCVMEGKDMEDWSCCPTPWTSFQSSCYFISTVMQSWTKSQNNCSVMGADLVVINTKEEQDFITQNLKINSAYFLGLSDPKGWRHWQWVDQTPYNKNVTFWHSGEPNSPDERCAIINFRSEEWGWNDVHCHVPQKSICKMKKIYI

| kdis (human BDCA2 ectodomain; [3]) | kon (human BDCA2 ectodomain; [3]) | kdis (human BDCA2 ectodomain; [4]) | kon (human BDCA2 ectodomain; [4]) | binding to human versus cyno BDCA2 ECD [1] | Substance | concentration that saturates BDCA2 receptor binding [2] | effect est., log % circulating pDC (circulating pDCs; Group: BIIB059 1 mg/kg IV v. vehicle) | effect est., log % circulating pDC (circulating pDCs; SC 0.2 mg/kg, time (continuous)) | effect est., log % circulating pDC (circulating pDCs; SC 0.2 mg/kg, time: 1 hr v. others) | depletion of pDCs in the blood, in words (circulating pDCs; tested doses) |
| --- | --- | --- | --- | --- | --- | --- | --- | --- | --- | --- |
| 0.000408 s⁻¹ | 549000 M⁻¹ s⁻¹ | 0.000398 s⁻¹ | 727000 M⁻¹ s⁻¹ | – | 24F4S: hu24F4 H4/L1 with C95S light chain; differs from BIIB059 by 1 amino acid residue | – | – | – | – | – |
| – | – | – | – | comparable | BIIB059: humanized IgG1 anti-BDCA2 antibody, mature heavy chain SEQ ID NO: 4 and mature light chain SEQ ID NO: 3 | 10 µg/mL | 0.49 | 0.01 | −0.78 | does not mediate a sustained depletion of pDCs |
